Columns and labels:
Assay type in all cases: in vivo, human
hemodialysis patients [1] = experiment: Biochemical marker studies, 52 week randomized study in hemodialysis patients; details: end of the chronic phase of the study
Description: Protocols 1-7 for use of RenaGel® (Geltex Pharmaceuticals, Inc., Waltham, Mass.) in each of the haemodialysis patient studies are provided in the following references, respectively, the teachings of which are incorporated herein by reference in their entireties.
Chertow, G. M., Burke, S. K., Raggi, P., for the Treat to Goal Working Group, “Sevelamer attenuates the progression of coronary and aortic calcification in hemodialysis patients,” Kidney Int. 62: 245-252 (2002).
Osteocalcin and BSAP are measures of osteoblast function and are indicative of bone formation. […] There were no statistically significant differences between treatment groups in the mean change from Day 0 to Week 52 in c-telopeptides, a collagen fragment which indicates osteoclast function and bone resorption.
The study was a 52 week, randomized, open label, multi-center, parallel study designed to assess the effects of sevelamer compared to calcium acetate/carbonate in enabling hemodialysis patients to reach therapeutic goals of phosphorus <5 mg/dL, calcium <10.5 mg/dL and iPTH in the range of 150-300 pg/mL. Patients also underwent Electron Beam Tomography (EBT) scans at Day 0 and Weeks 26 and 52. These scans were used to assess changes in cardiovascular calcification over time. […]

hemodialysis patients [2] = experiment: Cardiovascular calcification by Electron Beam Tomography (Agatston score), 52 week study; details: Week 0 to 52
Method: The study was a 52 week, randomized, open label, multi-center, parallel study designed to assess the effects of sevelamer compared to calcium acetate/carbonate in enabling hemodialysis patients to reach therapeutic goals of phosphorus <5 mg/dL, calcium <10.5 mg/dL and iPTH in the range of 150-300 pg/mL. Patients also underwent Electron Beam Tomography (EBT) scans at Day 0 and Weeks 26 and 52. These scans were used to assess changes in cardiovascular calcification over time. A total of 202 patients who were on hemodialysis and taking one or more phosphate binders were randomized in a 1:1 design to receive either Renagel® or calcium acetate (United States)/carbonate (Europe), stratified by the presence or absence of diabetes.
Approximately 12 months into the Extension study, the analysis of the initial study was completed. […] This difference was statistically significant (p=0.0398). […] This difference was statistically significant (p=0.0104). When analyzed by percent change and weekly change, the results were consistently in favor of the sevelamer group. Complete results are described in the article referenced as Protocol 7 (Chertow, 2002).

hemodialysis patients [3] = experiment: Thoracic spine bone density by computerized tomography densitometry, baseline vs 24 month EBT scan (Extension study); details: two years, FIG. 1
Description: Prior to the completion and analysis of this protocol, the study was extended for an additional two years. During this extension study, patients would remain on the phosphate binder to which they were originally randomized, sevelamer or calcium acetate/carbonate, and EBT scans would be performed at Month 24 and Month 36, to assess long-term changes in cardiovascular calcification. Forty-five patients in the US and 72 patients in the EU were eligible and consented to participate in the Extension study.
Having met the endpoints of the original study, the Extension study was prematurely discontinued. Only 77 Extension study patients opted to have a final EBT scan performed.
The study's EBT Core Lab evaluated the EBT images of patients who had both a baseline and 24 month scan to assess changes over time in trabecular and cortical bone density. Specifically, thoracic spine bone density was assessed by computerized tomography densitometry (density expressed as Hounsfield units). Trabecular bone density was measured in the core of the lowest vertebral body completely captured by the scanning procedure, while cortical bone density was measured in the axial plate of the same vertebral body. Care was taken to evaluate exactly the same vertebral level in consecutive scans in the same patient. […]

hemodialysis patients [4] = experiment: Bone density, baseline vs 12 month scan (Example 2)
Method: […] Specifically, thoracic spine bone density was assessed by computerized tomography densitometry (density expressed as Hounsfield units). Trabecular bone density was measured in the core of the lowest vertebral body completely captured by the scanning procedure, while cortical bone density was measured in the axial plate of the same vertebral body. Care was taken to evaluate exactly the same vertebral level in consecutive scans in the same patient. No significant differences in demographics, baseline bone density or vascular calcification scores were observed between the sevelamer and calcium groups, with the exception of age, (sevelamer/Renagel group 53±12 yrs, calcium group 59±13 yrs, p=0.02).

hemodialysis patients [5] = experiment: Biochemical markers after 12 months of treatment (Example 2); details: on average, one treatment group relative to the other
Method: Following the 12 months of treatment, the levels a number of biochemical markers were assayed in the patient groups. […] The group treated with sevelamer had on average higher iPTH, 1-84 PTH, alkaline phosphatase, bone specific alkaline phosphatase, osteocalcin, and HDL cholesterol. The sevelamer group had lower calcium, 25-hydroxyvitamin D, total cholesterol, LDL cholesterol, apolipoprotein B, […] and total CO2.

[6] = 12 month treatment period, absolute and percentage change

Substance: calcium acetate/carbonate
- mean increase in BSAP (bone-specific alkaline phosphatase) (hemodialysis patients [1]; p<0.0001 between groups): 6.81 U/L
- mean increase in osteocalcin (hemodialysis patients [1]; p=0.0003 between groups): 15.80 ng/mL
- median change in aortic calcification by Agatston score (hemodialysis patients [2]; p=0.0104 between groups): 75.05
- median change in coronary artery calcification by Agatston score (hemodialysis patients [2]; p=0.0398 between groups): 36.55
- change in cortical bone density from baseline (hemodialysis patients [3]): non-significant decrease
- change in trabecular bone density from baseline (hemodialysis patients [3]): significant reduction
- change in cortical bone density (hemodialysis patients [4]; [6]): trend to reduced
- change in trabecular bone density (hemodialysis patients [4]; [6]): significant reduction
- magnitude of trabecular bone density loss, mean (hemodialysis patients [4]; 52 weeks): −5%
- iPTH (hemodialysis patients [5]): significantly lower
